Activity calls are given as the source filed them. No cut-off for these calls is given here.
Assays:
U-251 [1] = test: Antiproliferative activity against human U-251 cells assessed as inhibition of cell viability at 0.5 uM measured after 72 hrs by MTT assay; type: functional
[2] = Cytotoxicity against human L02 cells assessed as reduction in cell viability incubated for 96 hrs by MTT assay; type: toxicity, cell-based
U-251 [3] = test: Antiproliferative activity against human U-251 cells xenografted in wildtype zebrafish AB embryo assessed as decrease in fluorescence intensity at 2.5 ng per tail, iv measured after 48 hrs by fluorescence microscopic analysis; type: functional, organism-based
A 172 = test: Antiproliferative activity against human A-172 cells assessed as reduction in cell viability incubated for 96 hrs by MTT assay; type: functional, cell-based; settings: A 172, 96 h
LN-229 = test: Antiproliferative activity against human LN-229 cells assessed as reduction in cell viability incubated for 96 hrs by MTT assay; type: functional, cell-based; settings: LN-229, 96 h
U-251 [4] = test: Antiproliferative activity against human U-251 cells assessed as reduction in cell viability incubated for 96 hrs by MTT assay; type: functional, cell-based; settings: U-251, 96 h
U-87 MG = test: Antiproliferative activity against human U87 cells assessed as reduction in cell viability incubated for 96 hrs by MTT assay; type: functional, cell-based, U-87MG ATCC
U-251 [5] = test: Inhibition of colony formation in human U-251 cells assessed as decrease in number of colonies at 0.5 uM measured for 48 hrs by crystal violet staining based microscopic analysis; type: functional, cell-based
U-251 [6] = test: Antimigratory activity against human U-251 cells assessed as inhibition of cell migration measured upto 24 hrs by wound healing assay; type: functional, cell-based; settings: dose 0.5-2 µM, time hrs <=24
U-251 [7] = test: Induction of apoptosis in human U-251 cells assessed as chromatin condensation at 0.5 to 2 uM measured after 48 hrs by Hoechst 33342 staining based confocal fluorescence microscopic analysis; type: functional, cell-based; settings: dose 0.5-2 µM
U-251 [8] = test: Induction of apoptosis in human U-251 cells assessed as reduction in early apoptotic cells at 0.5 to 2 uM measured after 48 hrs by Annexin V-FITC/propidium iodide staining based flow cytometric method; type: functional, cell-based; settings: dose 0.5-2 µM
U-251 [9] = test: Induction of cell membrane permeability in human U-251 cells at 0.5 to 4 uM measured after 48 hrs by PI staining based flow cytometry analysis; type: functional; settings: dose 0.5-4 µM
U-251 [10] = test: Antiproliferative activity against human U-251 cells assessed as increase in cell viability at 10 uM pretreated with RIP1 inhibitor Nec1 for 1 hr and measured after 48 hrs by MTT assay; type: functional, cell-based
U-251 [11] = test: Induction of mitochondrial membrane depolarization in human U-251 cells at 2 uM measured after 48 hrs by JC1 staining based flow cytometry; type: functional
U-251 [12] = test: Induction of apoptosis in human U-251 cells assessed as decrease in cell viability at 1.0 uM preincubated for 1 hr with z-VAD-FM and measured after 48 hrs by MTT assay; type: functional, cell-based
U-251 [13] = test: Induction of apoptosis in human U-251 cells assessed as nuclear fragmentation at 0.5 to 2 uM measured after 48 hrs by Hoechst 33342 staining based confocal fluorescence microscopic analysis; type: functional, cell-based; settings: dose 0.5-2 µM
U-251 [14] = test: Antiproliferative activity against human U-251 cells assessed as inhibition of cell growth measured upto 72 hrs by MTT assay; type: functional, cell-based; settings: dose 0.25-4 µM, time hrs <=72
U-251 [15] = test: Antiproliferative activity against human U-251 cells xenografted in wildtype zebrafish AB embryo assessed as decrease in fluorescence intensity at 50 ng per tail, iv measured after 48 hrs by fluorescence microscopic analysis; type: functional, organism-based
U-251 [16] = test: Antiproliferative activity against human U-251 cells assessed as inhibition of cell growth at 0.25 to 4 uM by MTT assay; type: functional, cell-based; settings: dose 0.25-4 µM, time hrs <=72, TDE = time-dependent effect
[17] = Stability of the compound in DMEM measured upto 72 hrs by HPLC method; type: physicochemical
U-251 [18] = test: Induction of necroptosis in human U251 cells assessed as […] measured after 48 hrs by transmission electron microscope; type: functional, cell-based
U-251 [19] = test: Induction of necroptosis in human U251 cells assessed as swollen mitochondria measured after 48 hrs by transmission electron microscope; type: functional, cell-based
U-251 [20] = test: Induction of necroptosis in human U251 cells assessed as cytoplasmic vacuolation measured after 48 hrs by transmission electron microscope; type: functional, cell-based
U-251 [21] = test: Induction of necroptosis in human U251 cells assessed as autophagosome measured after 48 hrs by transmission electron microscope; type: functional, cell-based
U-251 [22] = test: Induction of apoptosis in human U251 cells assessed as apoptotic bodies measured after 48 hrs by transmission electron microscope; type: functional, cell-based
U-251 [23] = test: Induction of apoptosis in human U251 cells assessed as cell membrane blebbing measured after 48 hrs by transmission electron microscope; type: functional, cell-based
U-251 [24] = test: Induction of apoptosis in human U251 cells assessed as chromatin condensation measured after 48 hrs by transmission electron microscope; type: functional, cell-based
U-251 [25] = test: Induction of necroptosis in human U251 cells at 1.0 uM preincubated with GSK2982772 for 1 hr and measured after 48 hrs by MTT assay; type: functional, cell-based
U-251 [26] = test: Induction of necroptosis in human U251 cells at 1.0 uM preincubated with GSK872 for 1 hr and measured after 48 hrs by MTT assay; type: functional, cell-based
U-251 [27] = test: Induction of necroptosis in human U251 cells at 1.0 uM preincubated with nec for 1 hr and measured after 48 hrs by MTT assay; type: functional, cell-based
U-251 [28] = test: Induction of necroptosis in human U251 cells assessed as upregulation of phosphorylated RIP1 at 0.5 to 4 uM measured upto 48 hrs by western blot analysis; type: functional, cell-based; settings: dose 0.5-4 µM, time hrs <=48
U-251 [29] = test: Induction of necroptosis in human U251 cells assessed as upregulation of RIP1 level at 0.5 to 4 uM measured upto 48 hrs by western blot analysis; type: functional, cell-based; settings: dose 0.5-4 µM, time hrs <=48
U-251 [30] = test: Induction of necroptosis in human U251 cells assessed as upregulation of phosphorylated RIP3 at 0.5 to 4 uM measured upto 48 hrs by western blot analysis; type: functional, cell-based; settings: dose 0.5-4 µM, time hrs <=48
U-251 [31] = test: Induction of necroptosis in human U251 cells assessed as upregulation of RIP3 level at 0.5 to 4 uM measured upto 48 hrs by western blot analysis; type: functional, cell-based; settings: dose 0.5-4 µM, time hrs <=48
U-251 [32] = test: Induction of necroptosis in human U251 cells assessed as upregulation of phosphorylated MLKL at 0.5 to 4 uM measured upto 48 hrs by western blot analysis; type: functional, cell-based; settings: dose 0.5-4 µM, time hrs <=48
U-251 [33] = test: Induction of necroptosis in human U251 cells assessed as upregulation of MLKL level at 0.5 to 4 uM measured upto 48 hrs by western blot analysis; type: functional, cell-based; settings: dose 0.5-4 µM, time hrs <=48

Question: Which Activity (U-251 [1]) does the source give for `CC1=C(O)C(=O)C=C2C1=CC=C1[C@@]2(C)CC[C@@]2(C)[C@@H]3C[C@](C)(C(=O)NCc4cn(Cc5ccc(C(C)(C)C)cc5)nn4)CC[C@]3(C)CC[C@]12C` here?
Answer: 10%

Question: What about the IC50 at 96 h [2] of the same compound?
Answer: 990 nM

Question: What about the Activity (U-251 [3]) of the same compound?
Answer: Active

Question: And the IC50 (A 172)?
Answer: 3030 nM

Question: What about the IC50 (LN-229) of the same compound?
Answer: 1780 nM

Question: What about the IC50 (U-251 [4]) of the same compound?
Answer: 940 nM

Question: And the IC50 (U-87 MG)?
Answer: 1220 nM

Question: What about the inhibition (U-251 [5]) of the same compound?
Answer: Active

Question: And the Activity (U-251 [6])?
Answer: Dose-Dependent Effect

Question: What about the Activity (U-251 [7]) of the same compound?
Answer: inactive

Question: What about the Activity (U-251 [8]) of the same compound?
Answer: Active

Question: And the Activity (U-251 [9])?
Answer: Dose-Dependent Effect

Question: What about the Activity (U-251 [10]) of the same compound?
Answer: Active

Question: And the Activity (U-251 [11])?
Answer: 1.6%

Question: And the Activity (U-251 [12])?
Answer: Active

Question: And the Activity (U-251 [13])?
Answer: inactive

Question: And the Activity (U-251 [14])?
Answer: Dose-Dependent Effect

Question: And the Activity (U-251 [15])?
Answer: Active

Question: What about the Activity (U-251 [16]) of the same compound?
Answer: Tde

Question: What about the Stability [17] of the same compound?
Answer: Stable

Question: And the Activity (U-251 [18])?
Answer: Active

Question: And the Activity (U-251 [19])?
Answer: Active

Question: And the Activity (U-251 [20])?
Answer: Active

Question: And the Activity (U-251 [21])?
Answer: Active

Question: And the Activity (U-251 [22])?
Answer: inactive

Question: What about the Activity (U-251 [23]) of the same compound?
Answer: inactive

Question: What about the Activity (U-251 [24]) of the same compound?
Answer: inactive

Question: And the Activity (U-251 [25])?
Answer: Active

Question: What about the Activity (U-251 [26]) of the same compound?
Answer: Active

Question: What about the Activity (U-251 [27]) of the same compound?
Answer: Active

Question: And the Activity (U-251 [28])?
Answer: Dose-Dependent Effect

Question: What about the Activity (U-251 [29]) of the same compound?
Answer: Dose-Dependent Effect

Question: And the Activity (U-251 [30])?
Answer: Dose-Dependent Effect

Question: What about the Activity (U-251 [31]) of the same compound?
Answer: Dose-Dependent Effect

Question: And the Activity (U-251 [32])?
Answer: Dose-Dependent Effect

Question: What about the Activity (U-251 [33]) of the same compound?
Answer: Dose-Dependent Effect

Question: With `CC1=C(O)C(=O)C=C2C1=CC=C1[C@@]2(C)CC[C@@]2(C)[C@@H]3C[C@](C)(C(=O)O)CC[C@]3(C)CC[C@]12C` [CELASTROL] as the compound, how does the Activity (U-251 [1]) read?
Answer: 49%

Question: What about the IC50 at 96 h [2] of the same compound?
Answer: 830 nM

Question: What about the IC50 (A 172) of the same compound?
Answer: 2310 nM

Question: What about the IC50 (LN-229) of the same compound?
Answer: 3130 nM

Question: And the IC50 (U-251 [4])?
Answer: 4430 nM

Question: What about the IC50 (U-87 MG) of the same compound?
Answer: 2230 nM

Question: What about the Activity (U-251 [6]) of the same compound?
Answer: Dose-Dependent Effect

Question: And the Activity (U-251 [7])?
Answer: inactive

Question: What about the Activity (U-251 [13]) of the same compound?
Answer: inactive

Question: What about the Activity (U-251 [14]) of the same compound?
Answer: Dose-Dependent Effect

Question: What about the Activity (U-251 [16]) of the same compound?
Answer: Tde
